27 molecules from patent publication US20240190890A1, “MK2 INHIBITORS AND USES THEREOF” (Bristol-Myers Squibb Company, priority 2022, published 2024) can be followed below.

As a reminder, the IC50 is the concentration at which inhibition is half-maximal.

In the assay the target is p38a activated, mitogen-activated protein kinase-activated protein kinase 2 (MAPKAP-K2 or MK2) enzyme (Homo sapiens (Human), UniProt P49137). As to the kind of experiment: MK2 Omnia continuous-read kinase assay for compound potency. Format: biochemical. The note with it: [MK-2]=0.4 nM, [ATP]=10 μM, [ST3-Sox]=10 μM; room temperature. The essentials: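 p38a-activated MK2 (0.4 nM) with 10 μM ATP (apparent Km) and 10 μM S/T3-Sox peptide in Tris pH 7.5 buffer with MgCl2, EGTA and DTT. Fluorescence (ex360/em485) read continuously for 120 min at room temperature. IC50 from initial linear slopes; apparent kinact/KI from kobs of exponential progress-curve fits.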
p38a activated, mitogen-activated protein kinase-activated protein kinase 2 (MAPKAP-K2 or MK2) enzyme, sequence (P49137 whole entry): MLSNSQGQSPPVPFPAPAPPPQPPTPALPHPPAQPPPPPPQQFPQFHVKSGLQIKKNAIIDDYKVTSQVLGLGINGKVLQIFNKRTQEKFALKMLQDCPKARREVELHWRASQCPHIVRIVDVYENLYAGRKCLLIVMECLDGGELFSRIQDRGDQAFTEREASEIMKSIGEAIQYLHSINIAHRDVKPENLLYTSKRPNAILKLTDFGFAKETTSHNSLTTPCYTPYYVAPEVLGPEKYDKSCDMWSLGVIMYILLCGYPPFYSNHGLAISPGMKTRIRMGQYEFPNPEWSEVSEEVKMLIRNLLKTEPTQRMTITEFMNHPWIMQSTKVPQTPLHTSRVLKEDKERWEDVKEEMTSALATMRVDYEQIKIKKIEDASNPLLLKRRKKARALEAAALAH

For the molecule `C[C@@H]1CNc2c(sc3ccc4nc(-c5cccc(Cl)n5)ccc4c23)C(=O)N1` [Example I-52, (R)-3-(6-chloropyridin-2-yl)-10-methyl-9,10,11,12-tetrahydro-8H-[1,4]diazepino[5′,6′:4,5]thieno[3,2-f]quinolin-8-one], the IC50 stood at 116 nM.
For `C[C@@H]1CNc2c(sc3ccc4nc(-c5nc(Cl)nc6c5CN(C)CC6)ccc4c23)C(=O)N1` [Example I-192, (R)-3-(2-chloro-6-methyl-5,6,7,8-tetrahydropyrido[4,3-d]pyrimidin-4-yl)-10-methyl-9,10,11,12-tetrahydro-8H-[1,4]diazepino[5′,6′:4,5]thieno[3,2-f]quinolin-8-one], the half-inhibitory concentration (IC50) was 257 nM.
Turning to `C#Cc1cc(-c2ccc3c(ccc4sc5c(c43)NC[C@@H](C)NC5=O)n2)cc(N2CCC(OC)CC2)n1` [Example I-159, (R)-3-(2-ethynyl-6-(4-methoxypiperidin-1-yl)pyridin-4-yl)-10-methyl-9,10,11,12-tetrahydro-8H-[1,4]diazepino[5′,6′:4,5]thieno[3,2-f]quinolin-8-one], the IC50 is 189 nM.
As for `[2H]C([2H])([2H])N1CCN(c2cc(-c3ccc4c(ccc5sc6c(c54)NC[C@@H](C)NC6=O)n3)cc(C=C)n2)CC1` [Example I-171, (R)-10-methyl-3-(2-(4-(methyl-d3)piperazin-1-yl)-6-vinylpyridin-4-yl)-9,10,11,12-tetrahydro-8H-[1,4]diazepino[5′,6′:4,5]thieno[3,2-f]quinolin-8-one], the IC50 was 13 nM.
Turning to `C[C@@H]1CNc2c(sc3ccc4nc(-c5cc(Cl)nc(N6CCN(C)CC6)c5)ccc4c23)C(=O)N1` [Example I-94, (R)-3-(2-chloro-6-(4-methylpiperazin-1-yl)pyridin-4-yl)-10-methyl-9,10,11,12-tetrahydro-8H-[1,4]diazepino[5′,6′:4,5]thieno[3,2-f]quinolin-8-one], the half-inhibitory concentration (IC50) was determined as 43 nM.
As to `C=Cc1cc(-c2ccc3c(ccc4sc5c(c43)NC[C@@H](C)NC5=O)n2)c(CN2CC3(COC3)C2)cn1` [Example I-263, (R)-3-(5-((2-oxa-6-azaspiro[3.3]heptan-6-yl)methyl)-2-vinylpyridin-4-yl)-10-methyl-9,10,11,12-tetrahydro-8H-[1,4]diazepino[5′,6′:4,5]thieno[3,2-f]quinolin-8-one], the concentration for half-maximal inhibition (IC50) turned out to be 47 nM.
Turning to `[2H]C([2H])([2H])C(O)c1cnc(C=C)cc1-c1ccc2c(ccc3sc4c(c32)NC[C@@H](C)NC4=O)n1` (stereo partly drawn) [Example I-260, (10R)-3-(5-(1-hydroxyethyl-2,2,2-d3)-2-vinylpyridin-4-yl)-10-methyl-9,10,11,12-tetrahydro-8H-[1,4]diazepino[5′,6′:4,5]thieno[3,2-f]quinolin-8-one], the IC50 was determined as 16 nM.
As to `C=Cc1cc(-c2ccc3c(ccc4sc5c(c43)NC[C@@H](C)NC5=O)n2)cc(N2CCC(COC)CC2)n1` [Example I-240, (R)-3-(2-(4-(methoxymethyl)piperidin-1-yl)-6-vinylpyridin-4-yl)-10-methyl-9,10,11,12-tetrahydro-8H-[1,4]diazepino[5′,6′:4,5]thieno[3,2-f]quinolin-8-one], the IC50 amounted to 107 nM.
For `C=Cc1ncn(-c2ccc3c(ccc4sc5c(c43)NC[C@@H](C)NC5=O)n2)n1` [Example I-207, (R)-10-methyl-3-(3-vinyl-1H-1,2,4-triazol-1-yl)-9,10,11,12-tetrahydro-8H-[1,4]diazepino[5′,6′:4,5]thieno[3,2-f]quinolin-8-one] the value was 26 nM.
Take `C[C@@H]1CNc2c(sc3ccc4nc(-c5cncc(Cl)c5)ccc4c23)C(=O)N1` [Example I-81, (R)-3-(5-chloropyridin-3-yl)-10-methyl-9,10,11,12-tetrahydro-8H-[1,4]diazepino[5′,6′:4,5]thieno[3,2-f]quinolin-8-one]: the 50% inhibitory concentration (IC50) amounted to 90 nM.
For `C/C=C/c1cc(-c2ccc3c(ccc4sc5c(c43)NC[C@@H](C)NC5=O)n2)c(C)cn1` [Example I-265, (R,E)-10-methyl-3-(5-methyl-2-(prop-1-en-1-yl)pyridin-4-yl)-9,10,11,12-tetrahydro-8H-[1,4]diazepino[5′,6′:4,5]thieno[3,2-f]quinolin-8-one], the IC50 came to 210 nM.
Regarding `C#Cc1cc(-c2ccc3c(ccc4sc5c(c43)NC[C@@H](C)NC5=O)n2)ncn1` [Example I-38, (R)-3-(6-ethynylpyrimidin-4-yl)-10-methyl-9,10,11,12-tetrahydro-8H-[1,4]diazepino[5′,6′:4,5]thieno[3,2-f]quinolin-8-one], the concentration for half-maximal inhibition (IC50) was 5 nM.
The result for `C#Cc1cc(-c2ccc3c(ccc4sc5c(c43)NC[C@@H](C)NC5=O)n2)cc(N2CCC2)n1` [Example I-180, (R)-3-(2-(azetidin-1-yl)-6-ethynylpyridin-4-yl)-10-methyl-9,10,11,12-tetrahydro-8H-[1,4]diazepino[5′,6′:4,5]thieno[3,2-f]quinolin-8-one] reads 184 nM; that for `C#Cc1cncc(-c2ccc3c(ccc4sc5c(c43)NC[C@@H](C)NC5=O)n2)c1` [Example I-83, (R)-3-(5-ethynylpyridin-3-yl)-10-methyl-9,10,11,12-tetrahydro-8H-[1,4]diazepino[5′,6′:4,5]thieno[3,2-f]quinolin-8-one], 83 nM; that for `C=Cc1ncc(COC2COC2)c(-c2ccc3c(ccc4sc5c(c43)NC[C@@H](C)NC5=O)n2)n1` [Example I-21, (R)-10-methyl-3-(5-((oxetan-3-yloxy)methyl)-2-vinylpyrimidin-4-yl)-9,10,11,12-tetrahydro-8H-[1,4]diazepino[5′,6′:4,5]thieno[3,2-f]quinolin-8-one], 24 nM.
The result for `C=Cc1cc(-c2ccc3c(ccc4sc5c(c43)NC[C@@H](C)NC5=O)n2)c(C)c(CN2CCOCC2)n1` [Example I-197, (R)-10-methyl-3-(3-methyl-2-(morpholinomethyl)-6-vinylpyridin-4-yl)-9,10,11,12-tetrahydro-8H-[1,4]diazepino[5′,6′:4,5]thieno[3,2-f]quinolin-8-one] reads 5 nM; that for `C=Cc1cnn(-c2ccc3c(ccc4sc5c(c43)NC[C@@H](C)NC5=O)n2)c1` [Example I-148, (R)-10-methyl-3-(4-vinyl-1H-pyrazol-1-yl)-9,10,11,12-tetrahydro-8H-[1,4]diazepino[5′,6′:4,5]thieno[3,2-f]quinolin-8-one], 101 nM; that for `C=Cc1nc(CN2CCN(C)CC2)cc(-c2ccc3c(ccc4sc5c(c43)NC[C@@H](C)NC5=O)n2)n1` [Example I-88, (R)-10-methyl-3-(6-((4-methylpiperazin-1-yl)methyl)-2-vinylpyrimidin-4-yl)-9,10,11,12-tetrahydro-8H-[1,4]diazepino[5′,6′:4,5]thieno[3,2-f]quinolin-8-one], 15 nM.
Take `C=Cc1cc(-c2ccc3c(ccc4sc5c(c43)NC[C@@H](C)NC5=O)n2)cc(N2CCC2)n1` [Example I-179, (R)-3-(2-(azetidin-1-yl)-6-vinylpyridin-4-yl)-10-methyl-9,10,11,12-tetrahydro-8H-[1,4]diazepino[5′,6′:4,5]thieno[3,2-f]quinolin-8-one]: the 50% inhibitory concentration (IC50) is 11 nM.
On to `C[C@@H]1CNc2c(sc3ccc4nc(-c5cc(C#CC(C)(C)N)nc(Cl)n5)ccc4c23)C(=O)N1` [Example I-63, (R)-3-(6-(3-amino-3-methylbut-1-yn-1-yl)-2-chloropyrimidin-4-yl)-10-methyl-9,10,11,12-tetrahydro-8H-[1,4]diazepino[5′,6′:4,5]thieno[3,2-f]quinolin-8-one], for which the concentration for half-maximal inhibition (IC50) was determined as 145 nM.
As to `C#Cc1cc(-c2ccc3c(ccc4sc5c(c43)NC[C@@H](C)NC5=O)n2)nc(C#CC(C)(C)N)n1` [Example I-67, (R)-3-(2-(3-amino-3-methylbut-1-yn-1-yl)-6-ethynylpyrimidin-4-yl)-10-methyl-9,10,11,12-tetrahydro-8H-[1,4]diazepino[5′,6′:4,5]thieno[3,2-f]quinolin-8-one], the IC50 was 38 nM.
The result for `C[C@@H]1CNc2c(sc3ccc4nc(-n5cc(Cl)cn5)ccc4c23)C(=O)N1` [Example I-152, (R)-3-(4-chloro-1H-pyrazol-1-yl)-10-methyl-9,10,11,12-tetrahydro-8H-[1,4]diazepino[5′,6′:4,5]thieno[3,2-f]quinolin-8-one] reads 86 nM; that for `C=Cc1cc(-c2ccc3c(ccc4sc5c(c43)NC[C@@H](C)NC5=O)n2)c(CN2CCC(OC)CC2)cn1` [Example I-155, (R)-3-(5-((4-methoxypiperidin-1-yl)methyl)-2-vinylpyridin-4-yl)-10-methyl-9,10,11,12-tetrahydro-8H-[1,4]diazepino[5′,6′:4,5]thieno[3,2-f]quinolin-8-one], 95 nM.
For the molecule “(R)-3-(2-chloro-5-(ethoxymethyl)pyrimidin-4-yl)-10-methyl-9,10,11,12-tetrahydro-8H-[1,4]diazepino[5′,6′:4,5]thieno[3,2-f]quinolin- [Example I-3]”, the half-inhibitory concentration (IC50) stood at 107 nM.
On to `C[C@@H]1CNc2c(sc3ccc4nc(-c5cc(Cl)nc(N6CCN(C)CC6)n5)ccc4c23)C(=O)N1` [Example I-17, (R)-3-(6-chloro-2-(4-methylpiperazin-1-yl)pyrimidin-4-yl)-10-methyl-9,10,11,12-tetrahydro-8H-[1,4]diazepino[5′,6′:4,5]thieno[3,2-f]quinolin-8-one], for which the half-inhibitory concentration (IC50) was 137 nM.
For `C=Cc1nc(C)c(C)n1-c1ccc2c(ccc3sc4c(c32)NC[C@@H](C)NC4=O)n1` [Example I-231, (R)-3-(4,5-dimethyl-2-vinyl-1H-imidazol-1-yl)-10-methyl-9,10,11,12-tetrahydro-8H-[1,4]diazepino[5′,6′:4,5]thieno[3,2-f]quinolin-8-one], the half-inhibitory concentration (IC50) amounted to 28 nM.
Turning to `C#Cc1cc(-c2ccc3c(ccc4sc5c(c43)NC[C@@H](C)NC5=O)n2)cc(C)n1` [Example I-112, (R)-3-(2-ethynyl-6-methylpyridin-4-yl)-10-methyl-9,10,11,12-tetrahydro-8H-[1,4]diazepino[5′,6′:4,5]thieno[3,2-f]quinolin-8-one], the IC50 was 152 nM.
